Reference: ChEMBL document CHEMBL1909046, “DrugMatrix in vitro pharmacology data”

Assays:
[1] = target: T1, Alpha-1A adrenergic receptor (Rattus norvegicus, UniProt P43140); test: DRUGMATRIX: Alpha-1A adrenergic receptor radioligand binding (ligand: prazosin); format: cell membranes, Wistar, Submaxillary gland, Membrane; conditions: Not Active = under 50% inhibition at 10 µM
T1 sequence (P43140 whole entry): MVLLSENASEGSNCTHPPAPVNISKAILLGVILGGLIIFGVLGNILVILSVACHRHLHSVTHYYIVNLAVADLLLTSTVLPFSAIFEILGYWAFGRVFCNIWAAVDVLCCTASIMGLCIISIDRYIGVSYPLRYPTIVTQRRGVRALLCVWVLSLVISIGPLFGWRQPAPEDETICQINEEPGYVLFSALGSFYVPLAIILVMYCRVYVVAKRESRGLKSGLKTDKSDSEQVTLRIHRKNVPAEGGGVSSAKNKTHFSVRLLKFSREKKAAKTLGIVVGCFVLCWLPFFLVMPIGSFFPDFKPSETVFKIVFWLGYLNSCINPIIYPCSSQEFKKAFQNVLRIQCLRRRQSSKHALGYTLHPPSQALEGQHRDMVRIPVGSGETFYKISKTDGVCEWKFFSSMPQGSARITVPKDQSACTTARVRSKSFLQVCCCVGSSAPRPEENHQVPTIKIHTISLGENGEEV

[2] = target: Beta-3 adrenergic receptor (Homo sapiens, UniProt P13945); test: DRUGMATRIX: Adrenergic beta3 radioligand binding (ligand: [125I] Cyanopindolol); format: cell membranes, HEK293, Membrane; conditions: hek293; Not Active = under 50% inhibition at 10 µM
Beta-3 adrenergic receptor, sequence (P13945 whole entry): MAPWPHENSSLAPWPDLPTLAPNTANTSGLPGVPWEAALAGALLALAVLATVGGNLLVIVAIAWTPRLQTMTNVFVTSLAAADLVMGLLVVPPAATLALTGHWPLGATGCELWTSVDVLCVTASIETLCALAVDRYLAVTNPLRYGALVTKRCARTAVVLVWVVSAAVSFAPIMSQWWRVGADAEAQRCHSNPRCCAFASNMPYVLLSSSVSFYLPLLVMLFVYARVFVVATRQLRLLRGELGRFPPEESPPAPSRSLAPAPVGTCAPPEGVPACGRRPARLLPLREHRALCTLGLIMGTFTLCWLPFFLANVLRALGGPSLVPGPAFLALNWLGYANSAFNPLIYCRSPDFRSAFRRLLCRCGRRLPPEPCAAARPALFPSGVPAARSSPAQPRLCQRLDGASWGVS

[3] = target: D(1A) dopamine receptor (Homo sapiens, UniProt P21728); test: DRUGMATRIX: Dopamine D1 radioligand binding (ligand: [3H] SCH-23390); format: cell membranes, CHO, Membrane; conditions: Not Active = under 50% inhibition at 10 µM
D(1A) dopamine receptor, sequence (P21728 whole entry): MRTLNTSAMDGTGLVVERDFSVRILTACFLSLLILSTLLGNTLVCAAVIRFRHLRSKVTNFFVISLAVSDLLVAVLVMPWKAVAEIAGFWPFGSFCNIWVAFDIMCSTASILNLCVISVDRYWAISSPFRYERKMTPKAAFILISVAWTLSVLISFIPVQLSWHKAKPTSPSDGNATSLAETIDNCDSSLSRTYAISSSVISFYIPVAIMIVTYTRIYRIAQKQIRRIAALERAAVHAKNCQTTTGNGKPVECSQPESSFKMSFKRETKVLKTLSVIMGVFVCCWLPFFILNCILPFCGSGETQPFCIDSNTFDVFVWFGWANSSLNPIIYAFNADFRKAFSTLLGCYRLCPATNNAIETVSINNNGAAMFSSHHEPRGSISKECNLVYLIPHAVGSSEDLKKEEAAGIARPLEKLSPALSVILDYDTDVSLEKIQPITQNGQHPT

[4] = DRUGMATRIX: GABAA, Flunitrazepam, Central radioligand binding (ligand: [3H] Flunitrazepam); format: cell membranes, Rattus norvegicus, Wistar, Brain, Membrane; conditions: Not Active = under 50% inhibition at 10 µM
[5] = target: Histamine H2 receptor (Homo sapiens, UniProt P25021); format: cell membranes, CHO-K1, Membrane; also: in other assays of this panel Not Active means under 50% inhibition at 10 µM
Histamine H2 receptor, sequence (P25021 whole entry): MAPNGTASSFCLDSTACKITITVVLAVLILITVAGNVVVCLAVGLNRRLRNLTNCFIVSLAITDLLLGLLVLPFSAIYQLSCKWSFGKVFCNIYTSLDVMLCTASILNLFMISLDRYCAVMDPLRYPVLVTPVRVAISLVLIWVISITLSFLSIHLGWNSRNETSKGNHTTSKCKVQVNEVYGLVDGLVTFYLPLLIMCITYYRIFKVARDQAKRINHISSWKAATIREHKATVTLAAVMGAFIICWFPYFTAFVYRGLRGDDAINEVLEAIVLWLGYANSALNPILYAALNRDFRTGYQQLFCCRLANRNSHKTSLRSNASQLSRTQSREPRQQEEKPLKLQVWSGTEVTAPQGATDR

[6] = DRUGMATRIX: Nicotinic Acetylcholine radioligand binding (ligand: [125I] Epibatidine); format: cell membranes, Membrane; conditions: imr-32; Not Active = under 50% inhibition at 10 µM
[7] = target: Epidermal growth factor receptor (Homo sapiens, UniProt P00533); test: DRUGMATRIX: Protein Tyrosine Kinase, EGF Receptor enzyme inhibition (substrate: Poly(Glu:Tyr)); format: cell-based, Insect cells; conditions: insect cells; Not Active = under 50% inhibition at 10 µM
Epidermal growth factor receptor, sequence (P00533 whole entry): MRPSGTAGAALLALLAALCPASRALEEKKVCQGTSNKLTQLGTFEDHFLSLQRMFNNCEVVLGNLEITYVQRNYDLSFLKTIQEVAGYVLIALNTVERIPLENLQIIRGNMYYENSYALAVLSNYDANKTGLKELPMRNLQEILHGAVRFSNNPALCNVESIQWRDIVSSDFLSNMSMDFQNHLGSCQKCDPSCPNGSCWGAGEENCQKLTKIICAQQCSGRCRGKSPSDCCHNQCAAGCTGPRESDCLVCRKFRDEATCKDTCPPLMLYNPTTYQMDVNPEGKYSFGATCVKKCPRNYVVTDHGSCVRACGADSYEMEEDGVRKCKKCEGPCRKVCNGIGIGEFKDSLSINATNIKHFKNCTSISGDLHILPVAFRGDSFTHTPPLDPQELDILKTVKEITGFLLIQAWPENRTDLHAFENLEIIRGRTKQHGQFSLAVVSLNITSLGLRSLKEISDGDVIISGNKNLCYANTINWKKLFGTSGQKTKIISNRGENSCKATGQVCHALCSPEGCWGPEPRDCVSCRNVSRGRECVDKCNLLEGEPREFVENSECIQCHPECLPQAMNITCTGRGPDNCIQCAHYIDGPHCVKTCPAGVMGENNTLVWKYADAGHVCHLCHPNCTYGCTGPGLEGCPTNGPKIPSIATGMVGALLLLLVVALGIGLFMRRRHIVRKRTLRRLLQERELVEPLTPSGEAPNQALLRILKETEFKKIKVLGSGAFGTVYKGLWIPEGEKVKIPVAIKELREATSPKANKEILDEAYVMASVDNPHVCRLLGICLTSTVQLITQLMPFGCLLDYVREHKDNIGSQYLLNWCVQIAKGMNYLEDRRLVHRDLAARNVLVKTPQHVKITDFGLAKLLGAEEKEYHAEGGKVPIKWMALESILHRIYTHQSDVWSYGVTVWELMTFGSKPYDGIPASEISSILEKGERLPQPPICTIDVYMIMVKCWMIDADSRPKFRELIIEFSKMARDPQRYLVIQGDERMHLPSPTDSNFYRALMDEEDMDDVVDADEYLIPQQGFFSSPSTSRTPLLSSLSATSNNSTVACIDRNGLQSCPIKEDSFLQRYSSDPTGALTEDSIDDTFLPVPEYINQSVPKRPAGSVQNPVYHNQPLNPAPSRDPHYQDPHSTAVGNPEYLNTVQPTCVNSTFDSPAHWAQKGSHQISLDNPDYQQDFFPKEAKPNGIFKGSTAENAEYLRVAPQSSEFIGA

[8] = target: T2, Cytochrome P450 1A2 (Homo sapiens, UniProt P05177); also: in other assays of this panel Not Active means under 50% inhibition at 10 µM
T2 sequence (P05177 whole entry): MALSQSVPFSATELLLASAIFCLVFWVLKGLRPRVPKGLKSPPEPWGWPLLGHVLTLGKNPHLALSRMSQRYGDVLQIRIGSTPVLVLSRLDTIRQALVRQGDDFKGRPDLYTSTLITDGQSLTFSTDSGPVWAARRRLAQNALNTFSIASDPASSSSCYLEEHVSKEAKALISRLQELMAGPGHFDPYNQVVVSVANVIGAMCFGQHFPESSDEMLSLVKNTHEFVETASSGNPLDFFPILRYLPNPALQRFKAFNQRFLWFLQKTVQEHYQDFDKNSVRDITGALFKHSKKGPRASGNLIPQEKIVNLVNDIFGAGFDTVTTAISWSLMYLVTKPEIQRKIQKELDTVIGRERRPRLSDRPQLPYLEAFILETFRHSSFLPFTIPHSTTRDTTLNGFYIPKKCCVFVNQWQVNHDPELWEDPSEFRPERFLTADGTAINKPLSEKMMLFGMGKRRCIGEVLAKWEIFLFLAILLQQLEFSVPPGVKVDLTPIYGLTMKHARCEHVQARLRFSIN

[9] = target: Cytochrome P450 2C19 (Homo sapiens, UniProt P33261); also: in other assays of this panel Not Active means under 50% inhibition at 10 µM
Cytochrome P450 2C19, sequence (P33261 whole entry): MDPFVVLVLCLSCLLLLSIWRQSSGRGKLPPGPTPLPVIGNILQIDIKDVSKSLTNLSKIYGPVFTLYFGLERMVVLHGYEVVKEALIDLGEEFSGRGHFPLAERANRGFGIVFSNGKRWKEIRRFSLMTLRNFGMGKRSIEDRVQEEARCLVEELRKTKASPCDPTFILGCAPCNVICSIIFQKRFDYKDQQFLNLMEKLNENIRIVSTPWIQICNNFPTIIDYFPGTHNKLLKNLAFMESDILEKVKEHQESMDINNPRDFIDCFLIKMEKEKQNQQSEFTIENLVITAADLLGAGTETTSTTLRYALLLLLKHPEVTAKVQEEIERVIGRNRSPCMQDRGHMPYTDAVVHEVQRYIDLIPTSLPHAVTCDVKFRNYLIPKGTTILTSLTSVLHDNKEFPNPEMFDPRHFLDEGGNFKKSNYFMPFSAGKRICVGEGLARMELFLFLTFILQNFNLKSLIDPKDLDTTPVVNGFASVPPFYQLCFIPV

[10] = target: Cytochrome P450 2D6 (Homo sapiens, UniProt P10635); also: in other assays of this panel Not Active means under 50% inhibition at 10 µM
Cytochrome P450 2D6, sequence (P10635 whole entry): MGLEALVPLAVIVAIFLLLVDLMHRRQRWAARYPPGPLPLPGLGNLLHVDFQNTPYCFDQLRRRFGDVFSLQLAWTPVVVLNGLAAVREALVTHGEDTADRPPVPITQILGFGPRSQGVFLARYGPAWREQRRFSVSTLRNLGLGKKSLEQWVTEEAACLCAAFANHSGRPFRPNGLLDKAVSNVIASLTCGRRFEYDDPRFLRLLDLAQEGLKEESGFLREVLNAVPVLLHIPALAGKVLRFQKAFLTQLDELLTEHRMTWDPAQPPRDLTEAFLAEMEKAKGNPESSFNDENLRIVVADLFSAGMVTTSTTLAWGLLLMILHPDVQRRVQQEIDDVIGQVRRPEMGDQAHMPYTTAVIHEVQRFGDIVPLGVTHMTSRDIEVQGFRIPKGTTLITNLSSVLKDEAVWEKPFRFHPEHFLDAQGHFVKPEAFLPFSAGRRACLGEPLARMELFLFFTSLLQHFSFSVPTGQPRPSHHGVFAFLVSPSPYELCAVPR

Structure (SMILES)	IC50 [1]	IC50 [2]	IC50 ([3]; cho)	IC50 [4]	Ki [4]	IC50 ([5]; cho-k1)	IC50 [6]	Ki [6]	IC50 [7]	IC50 [8] [nM]	IC50 ([1]; read-out: IC50) [nM]	Ki ([1]; read-out: Ki) [nM]	IC50 ([3]; read-out: IC50) [nM]	Ki ([3]; read-out: Ki) [nM]	IC50 ([5]; read-out: IC50) [nM]	Ki ([5]; read-out: Ki) [nM]	IC50 [9] [nM]	IC50 [10] [nM]
Cc1[nH]cnc1CN1CCc2c(c3ccccc3n2C)C1=O [ALOSETRON]	Not Active	Not Active	Not Active	Not Active	Not Active	Not Active	Not Active	Not Active	Not Active	605	–	–	–	–	–	–	–	–
c1ccc2c(c1)cc1ccc3cccc4ccc2c1c34	Not Active	Not Active	Not Active	Not Active	Not Active	Not Active	Not Active	Not Active	Not Active	40	–	–	–	–	–	–	–	–
CNCCC=C1c2ccccc2CCc2ccccc21 [NORTRIPTYLINE]	–	Not Active	–	Not Active	Not Active	–	Not Active	Not Active	Not Active	–	305	123	539	269	2330	2300	3000	1000
CNC(=O)Oc1ccc2c(c1)[C@]1(C)CCN(C)[C@@H]1N2C [PHYSOSTIGMINE]	Not Active	Not Active	Not Active	Not Active	Not Active	Not Active	Not Active	Not Active	Not Active	–	–	–	–	–	–	–	–	200
